What was measured:
[1] = system: Salmonella typhimurium; assay: Antibiofilm activity against Salmonella typhimurium ATCC 14028 after 24 hrs by crystal violet staining based assay; type: functional, organism-based, Salmonella enterica subsp. enterica serovar Typhimurium; conditions: Salmonella enterica, ATCC 14028, 24 h
[2] = system: Pseudomonas aeruginosa; assay: Antibiofilm activity against Pseudomonas aeruginosa PA14 after 24 hrs by crystal violet staining based assay; type: functional, organism-based; conditions: PA14, 24 h
[3] = system: Escherichia coli; assay: Antibiofilm activity against Escherichia coli TG1 after 24 hrs by crystal violet staining based assay; type: functional, organism-based; conditions: TG1, 24 h
[4] = system: Staphylococcus aureus; assay: Antibiofilm activity against Staphylococcus aureus SH1000 after 48 hrs by crystal violet staining based assay; type: functional, organism-based; conditions: SH1000, 48 h
[5] = system: Salmonella typhimurium; assay: Inhibition of planktonic growth of Salmonella typhimurium ATCC 14028 after 24 hrs; type: organism-based, Salmonella enterica subsp. enterica serovar Typhimurium; conditions: Salmonella enterica, ATCC 14028, 24 h
[6] = system: Escherichia coli; assay: Inhibition of planktonic growth of Escherichia coli TG1 after 24 hrs; type: organism-based; conditions: TG1, 24 h
[7] = system: Staphylococcus aureus; assay: Inhibition of planktonic growth of Staphylococcus aureus SH1000 after 48 hrs; type: organism-based; conditions: SH1000, 48 h

Row | SMILES | IC50 [1] | IC50 [2] | IC50 [3] | IC50 [4] | IC50 [5] | IC50 [6] | IC50 [7]
1 | Brc1ccc(-c2cnc(NCCCCCCCNc3ncc(-c4ccc(Br)cc4)[nH]3)[nH]2)cc1 | 50.4 µM | 252 µM | 19.1 µM | 300 µM | > 800 µM | 122 µM | 217 µM
2 | Clc1ccc(-c2cnc(NCCCCNc3ncc(-c4ccc(Cl)cc4)[nH]3)[nH]2)cc1 | 12.3 µM | 13 µM | 9.3 µM | 200 µM | 41.6 µM | 31.6 µM | 158 µM
3 | Clc1ccc(-c2cnc(NCCCCCCNc3ncc(-c4ccc(Cl)cc4)[nH]3)[nH]2)cc1 | 30.5 µM | 80.4 µM | 24.8 µM | 150 µM | 529 µM | 96.6 µM | 327 µM
4 | Brc1ccc(-c2cnc(NCCCCNc3ncc(-c4ccc(Br)cc4)[nH]3)[nH]2)cc1 | 13.2 µM | 11.2 µM | 7.2 µM | 300 µM | > 800 µM | > 100 µM | 145 µM
5 | Brc1ccc(-c2cnc(NCCCCCCCCNc3ncc(-c4ccc(Br)cc4)[nH]3)[nH]2)cc1 | 31.3 µM | 893 µM | 90.6 µM | 68.1 µM | > 800 µM | 136 µM | 69.3 µM
6 | Brc1ccc(-c2cnc(NCCCCCNc3ncc(-c4ccc(Br)cc4)[nH]3)[nH]2)cc1 | 6.5 µM | 13.4 µM | 10.5 µM | 12 µM | 35.9 µM | 22.4 µM | 26.4 µM
7 | Brc1ccc(-c2cnc(NCCCNc3ncc(-c4ccc(Br)cc4)[nH]3)[nH]2)cc1 | 5.5 µM | 11.2 µM | 4.1 µM | 24.2 µM | 11.9 µM | 4.77 µM | 29.2 µM
8 | Brc1ccc(-c2cnc(NCCCCCCNc3ncc(-c4ccc(Br)cc4)[nH]3)[nH]2)cc1 | 15.7 µM | 8.8 µM | 8.3 µM | 53.3 µM | > 800 µM | 6.43 µM | 93.8 µM
9 | Clc1ccc(-c2cnc(NCCCNc3ncc(-c4ccc(Cl)cc4)[nH]3)[nH]2)cc1 | 2.7 µM | 5.6 µM | 4.9 µM | 13 µM | 11.4 µM | 14.7 µM | 23.5 µM
10 | Clc1ccc(-c2cnc(NCCCCCNc3ncc(-c4ccc(Cl)cc4)[nH]3)[nH]2)cc1 | 3.8 µM | 6 µM | 12 µM | 94.4 µM | 15.2 µM | 224 µM | 90.2 µM

— ChEMBL document CHEMBL4219072, “Enhancing the anti-biofilm activity of 5-aryl-2-aminoimidazoles through nature inspired dimerisation” (Bioorg Med Chem, 2018)
